Measured values: PubChem BioAssay (NCI)
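Protocol summary: plate cells (96-well), add compound at 5 concentrations, incubate 48 h, interpolate endpoints linearly. At the TGI there is no net growth.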

Assays:
Assay in all cases: NCI anticancer screen, dose series, 48 h
CAKI-1 renal = system: CAKI-1 renal
HOP-18 NSCLC = system: HOP-18 NSCLC
HT29 colon = system: HT29 colon
KM20L2 colon = system: KM20L2 colon
NCI-H522 lung = system: NCI-H522 lung
RXF 393 renal = system: RXF 393 renal
SN12C renal = system: SN12C renal
TK-10 renal = system: TK-10 renal
UACC-62 melanoma = system: UACC-62 melanoma
CCRF-CEM leukemia = system: CCRF-CEM leukemia
SNB-78 CNS = system: SNB-78 CNS
XF 498 CNS = system: XF 498 CNS

Row | Compound | TGI (CAKI-1 renal) | TGI (HOP-18 NSCLC) | TGI (HT29 colon) | TGI (KM20L2 colon) | TGI (NCI-H522 lung) | TGI (RXF 393 renal) | TGI (SN12C renal) | TGI (TK-10 renal) | TGI (UACC-62 melanoma) | TGI (CCRF-CEM leukemia) | TGI (SNB-78 CNS) | TGI (XF 498 CNS)
1 | CC(C)OCN1COCN=C1NC#N | > 100 µM | > 100 µM | > 100 µM | > 100 µM | > 100 µM | > 100 µM | > 100 µM | > 100 µM | > 100 µM |  |  | 
2 | C=C(C)C1CC[C@]2(C(=O)O)CCC3(C)[C@H](CCC4[C@@]5(C)CC[C@H](OC6OC(CO)C(O)C6OC6OC(C)C(O)C(O)C6O)[C@@](C)(CO)C5CC[C@]43C)C12 (stereo partly specified) |  |  | > 100 µM | > 100 µM | > 100 µM | > 100 µM | > 100 µM | > 100 µM | > 100 µM | > 100 µM | > 100 µM | > 100 µM
3 | CC(NC1CCC[C@H]1O)c1ccccc1 (mixture of isomers) |  | > 100 µM | > 100 µM | > 100 µM | > 100 µM | > 100 µM | > 100 µM | > 100 µM | > 100 µM | > 100 µM | > 100 µM | > 100 µM
4 | CN/N=C(\C)CC(=O)Nc1cccc(Cl)c1C | > 100 µM | > 100 µM | > 100 µM | > 100 µM | > 100 µM | > 100 µM | > 100 µM | > 100 µM | > 100 µM | > 100 µM | > 100 µM | > 100 µM
5 | COCCN1C2=CCCCC2=Nc2c(N)nc(N)nc21 | > 100 µM | > 100 µM | > 100 µM | > 100 µM | > 100 µM | > 100 µM | > 100 µM | > 100 µM | > 100 µM | > 100 µM | > 100 µM | > 100 µM
6 | O=C(O)C1Cc2nc[nH]c2CN1 (stereo unspecified) | > 100 µM | > 100 µM | > 100 µM | > 100 µM | > 100 µM |  | > 100 µM | > 100 µM | > 100 µM | > 100 µM | > 100 µM | 
7 | O=C1C=C(Br)C(=O)C(Br)=C1 | > 100 µM | > 100 µM | > 100 µM | > 100 µM | > 100 µM | > 100 µM | > 100 µM | > 100 µM | > 100 µM | > 81.6 µM | > 100 µM | > 100 µM
8 | Cc1cccc(NC(=O)CC2C(=O)Nc3ccccc3S2(=O)=O)c1C (stereo unspecified) | > 100 µM | 61.9 µM | > 100 µM | > 100 µM | 33.4 µM | 34.3 µM | > 100 µM | 79.5 µM | 46.3 µM |  | 77.3 µM | 
9 | COc1ccc(-c2c(N)[n+]([O-])c3cc(C)c(C)cc3[n+]2[O-])cc1OC | > 100 µM | > 100 µM | > 100 µM | > 100 µM | 37.8 µM |  | > 100 µM | > 100 µM | > 100 µM | > 100 µM | > 100 µM | > 100 µM
10 | COc1cc(C2C(C(=O)O)=C(C)Oc3cc4c(cc32)OCO4)cc(OC)c1OC (stereo unspecified) | > 100 µM | > 100 µM | > 100 µM | > 100 µM |  | > 100 µM | > 100 µM | > 100 µM | > 100 µM | > 100 µM | > 100 µM | 95.9 µM
11 | CCCCCN(CCCCC)C(=O)[C@@H](CCC(=O)OCc1ccccc1)NC(=O)c1cc2ccccc2[nH]1 | > 100 µM | > 100 µM | > 100 µM | > 100 µM | > 100 µM | > 100 µM | > 100 µM |  | > 100 µM | > 100 µM | > 100 µM | 
12 | Fc1cccc(F)c1C1SCc2nc3ccccc3n21 (stereo unspecified) | > 100 µM | > 100 µM | > 100 µM | > 100 µM | > 100 µM | > 100 µM | > 100 µM | > 100 µM | > 100 µM | > 100 µM | > 100 µM | > 100 µM
13 | COC(=O)C(C(=O)C(=O)Nc1ccccc1OC)c1csc(-n2nc(-c3ccccc3)cc2-c2ccccc2)n1 (stereo unspecified) | > 100 µM | > 100 µM | > 100 µM | > 100 µM | > 100 µM | > 100 µM | > 100 µM | > 100 µM | > 100 µM | > 100 µM | > 100 µM | > 100 µM
14 | CCC(=S)N(C)O | > 100 µM |  | 24.1 µM | > 100 µM | 8.28 µM | > 100 µM | > 100 µM | > 95.3 µM | 78.3 µM | 12.3 µM | > 100 µM | 29.8 µM
15 | C=C1CC2(OC1=O)c1ccccc1CCc1ccccc12 | 3.82 µM | 4.61 µM | 3.6 µM | 14.5 µM | 3.14 µM | 3.07 µM | 5.47 µM | 7.09 µM | 15.9 µM | 2.49 µM | 4.43 µM | 3.88 µM
16 | COc1ccc(OC)c(CCc2cc(OC)c(OC)cc2C)c1 | > 100 µM |  | > 100 µM | > 100 µM | 20.4 µM |  | > 100 µM | > 100 µM | > 100 µM | > 100 µM | 92.7 µM | > 100 µM
17 | CC1CC(=O)C(C(O)CC2CC(=O)N(c3ccccc3)C(=O)C2)C(C)C1 (stereo unspecified) | > 100 µM | > 100 µM | > 100 µM | > 100 µM | > 100 µM | > 100 µM | > 100 µM | > 100 µM | > 100 µM | > 100 µM | > 100 µM | 
